ChEMBL document CHEMBL1125188, “Synthesis and evaluation of stilbene and dihydrostilbene derivatives as potential anticancer agents that inhibit tubulin polymerization” (J Med Chem, 1991)

Columns and labels:
[1] = test system: MCF7; experiment: Cytotoxic concentration required to inhibit 50% cell growth in MCF-7 breast carcinoma cell lines; type: functional; details: Homo sapiens, read-out: ED50 (the source's name)
[2] = target: Tubulin (Bos taurus, UniProt Q6B856+Q862L2+Q862F3); experiment: Ability to inhibit Tubulin polymerization in Bovine brain; type: functional, tissue-based
[3] = test system: MLM; experiment: Cytotoxic concentration required to inhibit 50% cell growth in MLM melanoma cell lines; type: functional; details: Homo sapiens, read-out: ED50 (the source's name)
[4] = test system: A549; experiment: Cytotoxic concentration required to inhibit 50% cell growth in A-549 lung carcinoma cell lines; type: functional; details: Homo sapiens, read-out: ED50 (the source's name)
[5] = test system: HT-29; experiment: Cytotoxic concentration required to inhibit 50% cell growth in HT-29 colon adenocarcinoma cell lines; type: functional; details: Homo sapiens, read-out: ED50 (the source's name)
[6] = test system: SK-MEL-5; experiment: Cytotoxic concentration required to inhibit 50% cell growth in SKMEL-5 melanoma cell lines; type: functional; details: Homo sapiens, read-out: ED50 (the source's name)

Row | IC50 [2] [µM] | SMILES | EC50 [1] [µM] | EC50 [3] [µM] | EC50 [4] [µM] | EC50 [5] [µM] | EC50 [6] [µM]
1 | 3.3 | COc1ccc(CCc2cc(OC)c(OC)c(OC)c2)cc1O | 0.33 | 0.01 | 0.01 | 0.081 | 0.0021
2 | – | COc1cc(/C=C\c2cccnc2)cc(OC)c1OC | 14.7 | > 25 | 13.7 | 9.8 | 6
3 | – | COc1cc(/C=C/c2cccnc2)cc(OC)c1OC | > 25 | > 25 | > 25 | > 25 | > 25
4 | – | COc1cc(CCc2ccc(NC(C)=O)cc2)cc(OC)c1OC | > 25 | > 25 | > 25 | > 25 | > 25
5 | 3.4 | COc1cc(/C=C\c2ccc(N(C)C)cc2)cc(OC)c1OC | 0.0058 | 0.0094 | 0.0041 | 0.0081 | 0.00015
6 | – | COc1cc(/C=C/c2ccc(OC)c(OC)c2OC)cc(OC)c1OC | 14.7 | 23.9 | 12.5 | 10.3 | 10.6
7 | – | COc1cc(OC)c(OC)cc1CCc1cc(OC)c(OC)c(OC)c1 | > 25 | > 25 | > 25 | > 25 | > 25
8 | 29 | COc1cc(CCc2ccc(N(C)C)cc2)cc(OC)c1OC | 0.064 | 0.12 | 0.083 | 0.077 | 0.059
9 | – | COc1cc(CCc2ccc(OC(C)=O)cc2)cc(OC)c1OC | > 25 | > 25 | 19 | > 25 | > 25
10 | – | COc1ccc(C(=O)Nc2cc(OC)c(OC)c(OC)c2)cc1 | > 25 | > 25 | > 25 | > 25 | > 25
11 | – | COc1cc(/C=C/c2ccc([N+](=O)[O-])cc2)cc(OC)c1OC | > 25 | > 25 | > 25 | > 25 | > 25
12 | – | COc1ccc(CNc2cc(OC)cc(OC)c2)cc1 | > 25 | > 25 | > 25 | > 25 | > 25
13 | – | COc1cc(/C=C/c2ccccc2)cc(OC)c1OC | > 25 | > 25 | > 25 | > 25 | > 25
14 | – | COc1ccc(/C=C/c2ccccc2)cc1OC | > 25 | > 25 | > 25 | > 25 | > 25
15 | – | COc1cc(/C=C/c2ccc(O[Si](C)(C)C(C)(C)C)cc2)cc(OC)c1OC | > 25 | > 25 | > 25 | > 25 | > 25
16 | – | COc1ccc(C(=O)Nc2cc(OC)cc(OC)c2)cc1 | > 25 | > 25 | > 25 | > 25 | > 25
17 | – | COc1cc(/C=C/c2cc(OC)c(OC)c(OC)c2)cc(OC)c1 | > 25 | > 25 | > 25 | > 25 | > 25
18 | 7.9 | COc1ccc(CCc2cc(OC)c(OC)c(OC)c2)cc1 | 0.00016 | 0.00018 | 0.00018 | 0.00025 | 0.00014
19 | – | COc1cc(CCc2cccnc2)cc(OC)c1OC | > 25 | > 25 | 12.2 | > 25 | > 25
20 | – | COc1ccc(C(=O)Nc2cc(OC)c(OC)c(OC)c2)cc1OC | > 25 | > 25 | > 25 | > 25 | > 25
21 | – | COc1ccc(/C=C/c2cc(OC)c(OC)c(OC)c2)c(Cl)c1 | > 25 | > 25 | > 25 | > 25 | > 25

Row | IC50 [2] [µM] | SMILES | EC50 [1] [µM] | EC50 [3] [µM] | EC50 [4] [µM] | EC50 [5] [µM] | EC50 [6] [µM]
22 | – | COc1cc(CCc2cc(OC)c(OC)c(OC)c2)cc(OC)c1OC | > 25 | > 25 | > 25 | > 25 | > 25
23 | – | COc1ccc(CNc2cc(OC)c(OC)c(OC)c2)cc1OC | > 25 | > 25 | > 25 | > 25 | > 25
24 | – | COc1cccc(/C=C/c2cc(OC)c(OC)c(OC)c2)c1 | 12.2 | > 25 | 9.8 | 7.3 | 0.5
25 | – | COc1cc(/C=C\c2ccc([N+](=O)[O-])cc2)cc(OC)c1OC | > 25 | > 25 | > 25 | > 25 | > 25
26 | – | COc1cc(CCc2ccc(N)cc2)cc(OC)c1OC | 11.9 | > 25 | 12.2 | 24.6 | 12.7
27 | 23 | COc1ccc(NCc2cc(OC)c(OC)c(OC)c2)cc1 | 0.0024 | 0.0016 | 0.0019 | 0.001 | 0.0007
28 | – | COc1cc(/C=C/c2cc(OC)c(OC)c(OC)c2)cc(OC)c1OC | > 25 | > 25 | > 25 | > 25 | > 25
29 | – | COc1cc(/C=C/c2ccc(OC(C)=O)cc2)cc(OC)c1OC | 9.6 | 13 | 9.7 | 5.4 | 4.6
30 | – | COc1cc(CNc2cc(OC)c(OC)c(OC)c2)cc(OC)c1OC | > 25 | > 25 | > 25 | > 25 | > 25
31 | 36 | COc1cc(/C=C\c2ccccc2)cc(OC)c1OC | 0.25 | > 25 | 0.17 | 0.084 | 0.12
32 | 29 | COc1ccc(NCc2cc(OC)cc(OC)c2)cc1 | 6.08 | > 25 | 5.71 | 17.8 | 2.41
33 | > 50 | COc1ccc(CNc2cc(OC)c(OC)c(OC)c2)cc1 | 0.86 | > 25 | 0.83 | 2.24 | 1.13
34 | – | COc1cc(/C=C/c2ccc(N)cc2)cc(OC)c1OC | > 25 | > 25 | > 25 | > 25 | > 25
35 | – | COc1ccc(CCc2ccccc2)c(OC)c1OC | > 25 | > 25 | > 25 | > 25 | > 25
36 | – | COc1cc(/C=C/c2ccc(O)cc2)cc(OC)c1OC | 18.6 | 24.2 | > 25 | > 25 | 11.6
37 | > 50 | COc1cc(/C=C/c2ccc(N(C)C)cc2)cc(OC)c1OC | 0.082 | 0.0125 | 0.0061 | 0.0069 | 0.0046
38 | – | COc1ccc(NC(=O)c2cc(OC)c(OC)c(OC)c2)cc1 | 12.2 | > 25 | 14.1 | 22.7 | > 25
39 | – | COc1ccccc1/C=C/c1cc(OC)c(OC)c(OC)c1 | 18 | > 25 | 12.2 | 12.1 | 13.5
40 | – | COc1cc(/C=C/c2ccc(Br)cc2)cc(OC)c1OC | 9.14 | 5.13 | 6.47 | 12.7 | 6.53
41 | – | COc1cc(/C=C/c2ccc(OC)c(OC)c2)cc(OC)c1 [(E)-3,4,3',5'-TETRAMETHOXYSTILBENE] | > 25 | > 25 | > 25 | > 25 | > 25
42 | – | COc1cccc2c1C(=O)c1c(O)c3c(c(O)c1C2=O)C[C@@](O)(C(=O)CO)C[C@@H]3O[C@H]1C[C@H](N)[C@H](O)[C@H](C)O1 [DOXORUBICIN] | 0.031 | 0.13 | 0.029 | 0.055 | 0.032

Row | SMILES | IC50 [2] [µM] | EC50 [1] [µM] | EC50 [3] [µM] | EC50 [4] [µM] | EC50 [5] [µM] | EC50 [6] [µM]
43 | COc1cccc(/C=C\c2cc(OC)c(OC)c(OC)c2)c1 | 8.8 | 0.14 | 1.4 | 0.13 | 0.09 | 0.06
44 | COc1cc(/C=C\c2ccc(Cl)cc2)cc(OC)c1OC | 4.8 | 0.18 | 0.17 | 0.08 | 0.05 | 0.01
45 | COc1ccc(/C=C\c2cc(OC)c(OC)c(OC)c2)c(Cl)c1 | 3.5 | 0.046 | 0.14 | 0.051 | 0.066 | 0.017
46 | COc1ccc(/C=C\c2cc(OC)c(OC)c(OC)c2)cc1 | 2.2 | – | 9.3e-05 | 2.2e-05 | 2.7e-05 | –
47 | COc1cc(/C=C\c2ccc(Br)cc2)cc(OC)c1OC | 3.1 | 0.016 | 0.014 | 0.011 | 0.0082 | 0.0067
48 | COc1cc(/C=C\c2ccc(OC(C)=O)cc2)cc(OC)c1OC | 29 | 3 | 6.3 | 1.7 | 6 | 6
49 | COc1ccc(/C=C/c2cc(OC)c(OC)c(OC)c2)cc1 | > 50 | 1.05 | 2.07 | 1.18 | 1.82 | 0.81
